Results taken from ChEMBL document CHEMBL1201862, “PubChem BioAssay data set” (2004).
Active and inactive are the calls of the source.

Columns and labels:
Staphylococcus aureus = experiment: Inhibitors of Bacterial Quorum Sensing Structure Activity Relationship (SAR) Analysis: Dose Response Assay. [Related pubchem assays: 700, 527 ]; type: functional, organism-based
[1] = biological target: Protein-tyrosine kinase 2-beta (Homo sapiens, UniProt Q14289);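 also: potency of inhibitors of PYK2 kinase phosphorylation of poly-GT substrate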
Chain of Protein-tyrosine kinase 2-beta (Q14289 whole entry): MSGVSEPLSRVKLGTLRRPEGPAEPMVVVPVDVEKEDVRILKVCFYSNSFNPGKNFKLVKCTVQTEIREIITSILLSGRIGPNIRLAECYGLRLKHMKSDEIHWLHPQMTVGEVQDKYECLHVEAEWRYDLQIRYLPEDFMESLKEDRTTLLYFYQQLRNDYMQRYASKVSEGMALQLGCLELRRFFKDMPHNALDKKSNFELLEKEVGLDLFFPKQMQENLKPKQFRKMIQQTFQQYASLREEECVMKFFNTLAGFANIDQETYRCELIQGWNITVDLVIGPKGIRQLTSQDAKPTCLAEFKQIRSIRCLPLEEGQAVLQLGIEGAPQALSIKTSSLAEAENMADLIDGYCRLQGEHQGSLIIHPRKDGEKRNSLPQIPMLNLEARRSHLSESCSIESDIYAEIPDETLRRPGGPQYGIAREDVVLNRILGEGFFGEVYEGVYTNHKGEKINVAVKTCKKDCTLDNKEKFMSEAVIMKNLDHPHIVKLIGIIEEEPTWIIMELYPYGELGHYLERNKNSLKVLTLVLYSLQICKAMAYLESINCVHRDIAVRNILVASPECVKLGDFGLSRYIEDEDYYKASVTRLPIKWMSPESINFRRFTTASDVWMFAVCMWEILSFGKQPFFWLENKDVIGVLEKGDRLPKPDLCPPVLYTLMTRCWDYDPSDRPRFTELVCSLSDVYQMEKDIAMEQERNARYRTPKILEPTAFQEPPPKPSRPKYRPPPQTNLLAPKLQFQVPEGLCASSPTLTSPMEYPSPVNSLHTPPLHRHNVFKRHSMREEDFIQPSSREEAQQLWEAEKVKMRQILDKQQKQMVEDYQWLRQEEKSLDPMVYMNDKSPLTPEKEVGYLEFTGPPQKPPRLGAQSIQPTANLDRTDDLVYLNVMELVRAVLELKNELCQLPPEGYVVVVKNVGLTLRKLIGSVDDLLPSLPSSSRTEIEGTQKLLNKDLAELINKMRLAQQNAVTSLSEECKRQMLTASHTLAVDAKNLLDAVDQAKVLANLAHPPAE

[2] = biological target: Mitogen-activated protein kinase 10 (Homo sapiens, UniProt P53779); experiment: Dose response biochemical screening assay for inhibitors of c-Jun N-Terminal Kinase 3 (JNK3). [Related pubchem assays: 746 ]
Chain of Mitogen-activated protein kinase 10 (P53779 whole entry): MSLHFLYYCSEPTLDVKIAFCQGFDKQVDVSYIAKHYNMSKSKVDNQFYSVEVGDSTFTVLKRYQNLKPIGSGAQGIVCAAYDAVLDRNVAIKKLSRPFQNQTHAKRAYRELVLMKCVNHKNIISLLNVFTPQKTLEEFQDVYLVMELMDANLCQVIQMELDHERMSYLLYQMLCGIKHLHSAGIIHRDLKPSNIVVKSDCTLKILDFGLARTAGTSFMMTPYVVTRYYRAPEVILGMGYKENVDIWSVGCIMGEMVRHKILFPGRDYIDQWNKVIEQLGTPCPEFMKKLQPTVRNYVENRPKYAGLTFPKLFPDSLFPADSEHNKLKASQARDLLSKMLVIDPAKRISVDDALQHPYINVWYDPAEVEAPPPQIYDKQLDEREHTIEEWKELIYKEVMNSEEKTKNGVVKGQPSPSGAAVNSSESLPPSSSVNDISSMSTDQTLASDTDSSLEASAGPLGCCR

Vasopressin V1a receptor = Vasopressin V1a receptor (Homo sapiens, UniProt P37288); experiment: Counterscreen for Oxytocin Receptor (OXTR) agonists: Fluorescence-based cell-based high throughput dose response assay to identify agonists of the vasopressin 1 receptor (V1R). [Related pubchem assays: 2435 (Primary screen (OXTR agonists in singlicate)), 434991 (Counterscreen (V1R agonists in triplicate)), 2482 (Summary (OXTR agonists)) …; type: functional
Chain of Vasopressin V1a receptor (P37288 whole entry): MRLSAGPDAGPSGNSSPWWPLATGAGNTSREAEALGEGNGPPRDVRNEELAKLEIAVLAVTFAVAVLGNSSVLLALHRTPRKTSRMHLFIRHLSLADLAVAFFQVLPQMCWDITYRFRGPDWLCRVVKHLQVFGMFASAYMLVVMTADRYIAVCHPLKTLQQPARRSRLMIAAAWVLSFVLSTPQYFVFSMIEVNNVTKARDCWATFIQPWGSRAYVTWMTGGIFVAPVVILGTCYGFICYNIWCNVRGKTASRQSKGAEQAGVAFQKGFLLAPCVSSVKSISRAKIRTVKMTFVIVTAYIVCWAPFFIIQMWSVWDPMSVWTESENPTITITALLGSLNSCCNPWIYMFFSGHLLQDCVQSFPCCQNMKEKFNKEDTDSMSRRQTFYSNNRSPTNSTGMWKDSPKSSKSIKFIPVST

Oxytocin receptor = Oxytocin receptor (Homo sapiens, UniProt P30559); experiment: Fluorescence-based cell-based high throughput dose response assay for agonists of the Oxytocin Receptor (OXTR). [Related pubchem assays: 2435 (Primary screen (OXTR agonists in singlicate)), 434991 (Counterscreen (V1R agonists in triplicate)), 2482 (Summary (OXTR agonists)), 434963 (Confirmation screen (OXTR agonists in triplicate))]; type: functional
Chain of Oxytocin receptor (P30559 whole entry): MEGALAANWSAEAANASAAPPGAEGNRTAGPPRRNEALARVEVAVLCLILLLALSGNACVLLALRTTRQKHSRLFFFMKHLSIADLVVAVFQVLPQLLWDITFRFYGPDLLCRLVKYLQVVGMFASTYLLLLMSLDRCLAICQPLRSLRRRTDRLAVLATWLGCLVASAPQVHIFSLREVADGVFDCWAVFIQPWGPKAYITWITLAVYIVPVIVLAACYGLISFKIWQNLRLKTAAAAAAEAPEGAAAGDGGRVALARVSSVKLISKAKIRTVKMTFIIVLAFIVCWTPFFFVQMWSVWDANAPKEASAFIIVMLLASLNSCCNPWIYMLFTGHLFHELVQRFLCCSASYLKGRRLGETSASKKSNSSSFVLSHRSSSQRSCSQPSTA

[3] = biological target: E3 ubiquitin-protein ligase Mdm2 (Homo sapiens, UniProt Q00987); experiment: enhancers of MDM2-luciferase reporter signal, concentration-effect titration, project on inhibitors of MDM2 ubiquitin ligase, cellular assay, luminescent readout, 384-well plate format (AID 1394); type: functional;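 also: MDM2 E3 inhibitors raise luminescence so EC50 is for signal enhancement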
Chain of E3 ubiquitin-protein ligase Mdm2 (Q00987 whole entry): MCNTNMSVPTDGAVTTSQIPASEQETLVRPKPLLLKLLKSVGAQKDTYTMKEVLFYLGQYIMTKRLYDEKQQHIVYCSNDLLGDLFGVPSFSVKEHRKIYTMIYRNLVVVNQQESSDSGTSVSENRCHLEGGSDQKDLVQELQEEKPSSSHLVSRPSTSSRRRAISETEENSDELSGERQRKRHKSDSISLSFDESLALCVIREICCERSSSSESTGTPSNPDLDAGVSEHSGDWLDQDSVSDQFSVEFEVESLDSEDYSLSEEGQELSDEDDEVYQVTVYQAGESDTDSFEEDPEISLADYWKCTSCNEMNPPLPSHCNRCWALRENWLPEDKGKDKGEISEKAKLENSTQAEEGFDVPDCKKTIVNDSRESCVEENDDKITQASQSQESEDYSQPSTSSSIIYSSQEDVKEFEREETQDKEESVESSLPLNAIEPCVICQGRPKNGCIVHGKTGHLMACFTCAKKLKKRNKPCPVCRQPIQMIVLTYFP

Galanin receptor type 2 = Galanin receptor type 2 (Homo sapiens, UniProt O43603); experiment: Dose Response cell-based high-throughput screening assay to identify antagonists of galanin receptor 2 (GALR2). [Related pubchem assays: 828, 866 ]; type: functional
Chain of Galanin receptor type 2 (O43603 whole entry): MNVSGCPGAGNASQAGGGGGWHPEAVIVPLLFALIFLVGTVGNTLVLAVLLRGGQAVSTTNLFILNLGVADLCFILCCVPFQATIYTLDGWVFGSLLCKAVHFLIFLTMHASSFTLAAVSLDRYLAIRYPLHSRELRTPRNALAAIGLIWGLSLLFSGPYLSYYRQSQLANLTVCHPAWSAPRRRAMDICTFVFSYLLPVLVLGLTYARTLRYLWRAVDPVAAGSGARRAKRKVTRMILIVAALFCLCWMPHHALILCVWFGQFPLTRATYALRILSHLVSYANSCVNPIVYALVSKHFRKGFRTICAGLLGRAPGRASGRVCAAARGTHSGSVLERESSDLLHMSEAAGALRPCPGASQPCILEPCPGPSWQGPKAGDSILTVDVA

Protein Rev = Protein Rev (Human immunodeficiency virus type 1 group M subtype B (isolate WMJ22)(HIV-1), UniProt P05866); experiment: HIV-1 Rev-RRE RNA binding disruptors, dose response, biochemical, protein-RNA interaction (AID 842); parameters: species or system Human immunodeficiency virus 1
Chain of Protein Rev (P05866 whole entry): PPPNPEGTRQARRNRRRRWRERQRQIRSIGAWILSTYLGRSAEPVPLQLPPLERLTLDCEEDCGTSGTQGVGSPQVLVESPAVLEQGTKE

[4] = biological target: Peroxisome proliferator-activated receptor gamma/Nuclear receptor coactivator 2 (Homo sapiens, UniProt P37231); type: functional;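 also: agonist potency for raising coactivator recruitment to the receptor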
[5] = biological target: Peroxisome proliferator-activated receptor gamma/Nuclear receptor coactivator 1 (Homo sapiens, UniProt P37231); type: functional;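 also: agonist potency as compounds enhance coactivator SRC-1 recruitment to PPARgamma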
[6] = biological target: Ubiquitin carboxyl-terminal hydrolase BAP1 (Homo sapiens, UniProt Q92560); experiment: BAP1 deubiquitinase inhibitors, dose response, biochemical (AID 714); type: functional
Chain of Ubiquitin carboxyl-terminal hydrolase BAP1 (Q92560 whole entry): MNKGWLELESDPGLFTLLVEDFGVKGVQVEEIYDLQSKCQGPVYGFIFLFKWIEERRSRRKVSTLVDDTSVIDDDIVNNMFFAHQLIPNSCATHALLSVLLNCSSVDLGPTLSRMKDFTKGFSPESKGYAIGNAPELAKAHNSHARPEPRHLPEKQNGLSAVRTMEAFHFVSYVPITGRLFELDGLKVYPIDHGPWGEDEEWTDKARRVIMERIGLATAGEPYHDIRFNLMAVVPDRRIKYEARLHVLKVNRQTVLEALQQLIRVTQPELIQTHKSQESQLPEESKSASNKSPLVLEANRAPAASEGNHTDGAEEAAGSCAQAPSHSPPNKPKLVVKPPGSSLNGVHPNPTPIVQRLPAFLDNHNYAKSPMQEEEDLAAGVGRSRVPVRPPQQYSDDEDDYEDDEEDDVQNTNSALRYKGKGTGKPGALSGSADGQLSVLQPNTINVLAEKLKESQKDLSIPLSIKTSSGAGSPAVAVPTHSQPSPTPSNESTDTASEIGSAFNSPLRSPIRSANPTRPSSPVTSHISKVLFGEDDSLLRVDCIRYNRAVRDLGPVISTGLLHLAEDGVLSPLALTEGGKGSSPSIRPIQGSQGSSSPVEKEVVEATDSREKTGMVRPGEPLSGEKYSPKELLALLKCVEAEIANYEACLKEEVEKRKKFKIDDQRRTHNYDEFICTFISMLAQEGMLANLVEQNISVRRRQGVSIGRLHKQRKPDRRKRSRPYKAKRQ

[7] = biological target: Peroxisome proliferator-activated receptor gamma/Nuclear receptor coactivator 3 (Homo sapiens, UniProt P37231); type: functional;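 also: agonist potency for raising coactivator recruitment to the receptor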
Cytochrome P450 2D6 = Cytochrome P450 2D6 (Homo sapiens, UniProt P10635); experiment: qHTS Assay for Inhibitors and Substrates of Cytochrome P450 2D6. [Related pubchem assays: 410 ]; type: ADME; conditions: read-out: Potency
Chain of Cytochrome P450 2D6 (P10635 whole entry): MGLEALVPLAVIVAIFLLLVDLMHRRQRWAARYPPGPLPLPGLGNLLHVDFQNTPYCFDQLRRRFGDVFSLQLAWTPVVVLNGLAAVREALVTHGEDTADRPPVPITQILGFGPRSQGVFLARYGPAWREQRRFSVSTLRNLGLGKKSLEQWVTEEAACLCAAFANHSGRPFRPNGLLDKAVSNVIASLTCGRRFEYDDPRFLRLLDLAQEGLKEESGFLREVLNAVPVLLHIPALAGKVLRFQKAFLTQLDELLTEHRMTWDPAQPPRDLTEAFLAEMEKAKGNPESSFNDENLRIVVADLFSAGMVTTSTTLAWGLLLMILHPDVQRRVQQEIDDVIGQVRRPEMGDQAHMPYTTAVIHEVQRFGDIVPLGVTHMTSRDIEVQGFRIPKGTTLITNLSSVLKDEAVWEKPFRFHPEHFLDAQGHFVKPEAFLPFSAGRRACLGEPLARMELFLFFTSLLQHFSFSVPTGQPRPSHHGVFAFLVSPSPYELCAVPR

Cytochrome P450 2C9 = Cytochrome P450 2C9 (Homo sapiens, UniProt P11712); conditions: Potency
Chain of Cytochrome P450 2C9 (P11712 whole entry): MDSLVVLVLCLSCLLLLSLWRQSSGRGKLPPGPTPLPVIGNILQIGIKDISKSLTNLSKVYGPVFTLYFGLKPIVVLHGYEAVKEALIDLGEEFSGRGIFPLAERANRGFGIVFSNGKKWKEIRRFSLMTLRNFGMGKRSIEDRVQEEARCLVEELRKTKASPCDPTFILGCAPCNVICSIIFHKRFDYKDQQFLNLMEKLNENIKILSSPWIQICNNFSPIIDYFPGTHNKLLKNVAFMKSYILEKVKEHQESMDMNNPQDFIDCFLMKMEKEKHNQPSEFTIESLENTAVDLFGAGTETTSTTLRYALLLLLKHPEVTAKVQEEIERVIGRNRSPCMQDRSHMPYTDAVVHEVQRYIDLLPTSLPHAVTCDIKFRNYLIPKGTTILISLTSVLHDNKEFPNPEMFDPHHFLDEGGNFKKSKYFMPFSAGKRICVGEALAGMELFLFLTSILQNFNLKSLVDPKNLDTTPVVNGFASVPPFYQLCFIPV

[8] = Luminescence Cell-Based Dose Confirmation HTS to Identify Activators of 5'UTR Stem-Loop Driven Alpha-Synuclein mRNA Translation in H4 Neuroglioblastoma Cells. [Related pubchem assays: 1829 (Project Summary), 1814 (Primary HTS)]; type: functional
[9] = Luminescence Cell-Based Dose Response HTS to Identify Activators of Luciferase Translation or Activity in H4 […] Cells. [Related pubchem assays: 1829 (Project Summary), 1814 (Primary HTS)]; type: functional
H4 = experiment: Luminescence Cell-Based Dose Response HTS to Identify Activators of 5'UTR Stem-Loop Driven Prion Protein mRNA Translation in H4 Neuroglioblastoma Cells. [Related pubchem assays: 1829 (Project Summary), 1814 (Primary HTS)]; type: functional; conditions: Homo sapiens
[10] = biological target: T1, Alkaline phosphatase, tissue-nonspecific isozyme (Homo sapiens, UniProt P05186)
T1 sequence (P05186 whole entry): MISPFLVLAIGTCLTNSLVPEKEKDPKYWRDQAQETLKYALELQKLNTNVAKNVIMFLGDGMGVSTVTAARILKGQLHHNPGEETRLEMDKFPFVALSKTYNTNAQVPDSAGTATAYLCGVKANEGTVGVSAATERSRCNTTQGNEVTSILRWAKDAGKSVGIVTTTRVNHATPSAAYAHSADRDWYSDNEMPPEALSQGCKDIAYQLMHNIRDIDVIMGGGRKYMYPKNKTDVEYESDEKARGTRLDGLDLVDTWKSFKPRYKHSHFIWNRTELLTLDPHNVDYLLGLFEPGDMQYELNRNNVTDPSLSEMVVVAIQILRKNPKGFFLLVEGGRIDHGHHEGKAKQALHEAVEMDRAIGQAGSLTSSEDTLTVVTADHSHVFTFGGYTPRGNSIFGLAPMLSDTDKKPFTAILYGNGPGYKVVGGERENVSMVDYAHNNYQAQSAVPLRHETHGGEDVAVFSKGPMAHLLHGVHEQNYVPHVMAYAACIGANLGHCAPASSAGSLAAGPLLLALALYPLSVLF

[11] = Luminescence-based cell-based high throughput dose response assay to identify activators of the DAF-12 from the parasite S. stercoralis (ssDAF-12).; type: functional
[12] = Luminescence Cell-Based Dose-Confimation HTS to Identify Inhibitors of 5'UTR Stem-Loop Driven Alpha-Synuclein mRNA Translation in H4 Neuroglioblastoma Cells. [Related pubchem assays: 1827 (Project Summary), 1813 (Primary HTS)]; type: functional

CC1CCCN(C(C(=O)Nc2ccc3c(c2)OCO3)c2ccccc2)C1 (stereo not given)
IC50 (Staphylococcus aureus): 0.162 µM (active)

COc1ccc([N+](=O)[O-])cc1COc1cc(C)cc2oc(=O)cc(-c3ccccc3)c12
IC50 [1]: > 69.5 µM (not active)

Cc1oc2ccc(OCC(N)=O)cc2c1C(=O)OC(C)C
IC50 [2]: 44.9 µM (not active)

Oc1ccc(Cl)cc1CNCc1ccc(F)cc1
EC50 (Vasopressin V1a receptor): 11 µM (not active)
EC50 (Oxytocin receptor): 15.5 µM (not active)

Cc1ccc(-n2c(C)cc(C=C3C(=O)CC(C)(C)CC3=O)c2C)cc1
EC50 [3]: 17.4 µM (not active)

CCOC(=O)COc1ccc(S(=O)(=O)NCc2ccncc2)cc1
IC50 (Galanin receptor type 2): > 42 µM (not active)

CC(NCc1ccc(N(C)C)cc1)C1CC2CCC1C2 (stereo not given)
IC50 (Protein Rev): > 79.4 µM (not active)

CCc1nc(SCC(=O)Nc2ccc3c(c2)OCCO3)c2oc3ccccc3c2n1
EC50 [4]: 23.3 µM (not active)
EC50 [5]: > 79.4 µM (not active)
IC50 [6]: 13.9 µM (active)
EC50 [7]: > 79.4 µM (not active)

CC(=O)OCC1OC(c2ccc3c(c2)OCO3)C=CC1OC(C)=O (stereo not given)
AC50 (Cytochrome P450 2D6): 7.94 µM (inconclusive)
AC50 (Cytochrome P450 2C9): 5.01 µM (inconclusive)

Cc1cc(C)c(C#N)c(SCc2nc3ccccc3[nH]2)n1
EC50 [8]: 0.262 µM (active)
EC50 [9]: 14.9 µM (active)
EC50 (H4): 44.6 µM (active)
EC50 [10]: > 100 µM (not active)
IC50 [11]: > 67.5 µM (inactive)

Nc1nc(CSc2nnnn2-c2ccccc2)nc(Nc2ccccc2)n1
EC50 [12]: 15.5 µM (active)
